Measured values from patent US20240391862A1, “(1,4,5-TRISUBSTITUTED-1H-PYRAZOL-3-YL)OXY-2-ALKOXY ALKYL ACIDS AND THEIR DERIVATIVES, THEIR SALTS AND THEIR USE AS HERBICIDAL AGENTS” (Bayer AKtiengesellschaft, priority 2021, published 2024).

Legend:
ZEAMX = assay: Post-emergence herbicidal effect and crop plant compatibility, greenhouse pot test; format: in vivo, Zea mays; settings: one-leaf stage, rated visually after about 3 weeks vs untreated controls; for plant injury at 20 g/ha / plant injury at 80 g/ha: Zea mays, 504 h; for plant injury at 20 g/ha: read-out: Post-emergence effect at 20 g/ha against ZEAMX in %; for plant injury at 80 g/ha: read-out: Post-emergence effect at 80 g/ha against ZEAMX in %
In short: (§1)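 Greenhouse pot plants in sandy loam receive a one-leaf-stage spray at 20 to 320 g/ha. Activity is assessed visually around 3 weeks afterwards on a 0–100% scale, where 100% means the plants have died.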

TRZAS = assay: as above; format: in vivo, Triticum aestivum; settings: 20 g/ha, one-leaf stage, rated visually after about 3 weeks vs untreated controls; for percent crop injury (phytotoxicity) to wheat, post-emergence at 20 g/ha: Triticum aestivum, 504 h, read-out: Post-emergence effect at 20 g/ha against TRZAS in %
In short: as §1

LOLRI = assay: Post-emergence herbicidal effect, greenhouse pot test; format: in vivo, Lolium rigidum; settings: for pest or weed control at 320 g/ha: Lolium rigidum, 504 h, read-out: Post-emergence effect against LOLRI in %
In short: (§2)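 Visual % activity scored roughly 3 weeks post-spray against untreated plants, where 100% means death and 0% equals control. Plants were treated at the one-leaf stage, 2 to 3 weeks after sowing in sandy loam, at 20 to 320 g/ha.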

AVEFA = assay: as above; format: in vivo, Avena fatua; settings: visual rating about 3 weeks after treatment
In short: as §2

KCHSC = assay: as above; format: in vivo; settings: for pest or weed control at 80 g/ha / pest or weed control at 320 g/ha: 504 h, read-out: Post-emergence effect against KCHSC in %
In short: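 Visual rating of activity against untreated plants (100% = plants died, 0% = no effect), done about 3 weeks after treatment. Compounds applied at 20–320 g/ha as aqueous spray (600 l/ha, 0.5% additive) from WP or EC formulations onto one-leaf-stage plants grown in sandy loam under greenhouse conditions.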

ALOMY = assay: as above; format: in vivo, Alopecurus myosuroides; settings: 320 g/ha, visual rating about 3 weeks after treatment; for pest or weed control at 320 g/ha: Alopecurus myosuroides, 504 h, read-out: Post-emergence effect against ALOMY
In short: as §2

POLCO = assay: as above; format: in vivo, Fallopia convolvulus; settings: for pest or weed control at 80 g/ha / pest or weed control at 320 g/ha: Fallopia convolvulus, 504 h, read-out: Post-emergence effect against POLCO in %
In short: as §2

VIOTR = assay: as above; format: in vivo, Viola tricolor; settings: for pest or weed control at 80 g/ha / pest or weed control at 320 g/ha: Viola tricolor, 504 h, read-out: Post-emergence effect against VIOTR in %
In short: as §2

VERPE = assay: as above; format: in vivo, Veronica persica
In short: as §2

DIGSA = assay: as above; format: in vivo, Digitaria sanguinalis; settings: visual rating about 3 weeks after treatment
In short: as §2

PHBPU = assay: as above; format: in vivo, Ipomoea purpurea
In short: as §2

ABUTH = assay: as above; format: in vivo, Abutilon theophrasti; settings: visual rating about 3 weeks after treatment; for pest or weed control at 80 g/ha / pest or weed control at 320 g/ha: Abutilon theophrasti, 504 h, read-out: Post-emergence effect against ABUTH
In short: as §2

AMARE = assay: as above; format: in vivo, Amaranthus retroflexus; settings: visual rating about 3 weeks after treatment
In short: as §2

SETVI = assay: as above; format: in vivo, Setaria viridis; settings: for pest or weed control at 320 g/ha: Setaria viridis, 504 h, read-out: Post-emergence effect against SETVI in %
In short: as §2

ECHCG = assay: as above; format: in vivo, Echinochloa crus-galli; settings: for pest or weed control at 80 g/ha / pest or weed control at 320 g/ha: Echinochloa crus-galli, 504 h, read-out: Post-emergence effect against ECHCG in %
In short: as §2

MATIN = assay: as above; format: in vivo, Tripleurospermum inodorum
In short: as §2

[1] = Veronica persica, 504 h, 80 g/ha, read-out: Post-emergence effect against VERPE in %
[2] = Veronica persica, 504 h, 320 g/ha, read-out: Post-emergence effect against VERPE in %
[3] = Digitaria sanguinalis, 504 h, 320 g/ha, read-out: Post-emergence effect against DIGSA
[4] = Ipomoea purpurea, 504 h, 80 g/ha, read-out: Post-emergence effect against PHBPU in %
[5] = Ipomoea purpurea, 504 h, 320 g/ha, read-out: Post-emergence effect against PHBPU in %
[6] = Amaranthus retroflexus, 504 h, 320 g/ha, read-out: Post-emergence effect against AMARE
[7] = Avena fatua, 504 h, 320 g/ha, read-out: Post-emergence effect against AVEFA

COC(Oc1nn(-c2ncccc2F)c(-c2ccc(F)nc2)c1C1CC1)C(=O)O (centres unmarked) [Example I-89]
Post-emergence effect at 20 g/ha against ZEAMX in % (ZEAMX; 20 g/ha): 0%
Post-emergence effect at 80 g/ha against ZEAMX in % (ZEAMX; 80 g/ha): 0%
Post-emergence effect at 20 g/ha against TRZAS in % (TRZAS): 0%
pest or weed control at 320 g/ha (LOLRI; 320 g/ha): 90%
Post-emergence effect against AVEFA (AVEFA; 320 g/ha): 80%
Post-emergence effect against KCHSC in % (KCHSC; 320 g/ha): 90%
pest or weed control at 320 g/ha (ALOMY): 90%
Post-emergence effect against POLCO in % (POLCO; 320 g/ha): 90%

COC(=O)CCOC(=O)C(OC)Oc1nn(-c2cc(F)ccc2F)c(-c2cncc(F)c2)c1C1CC1 (single isomer, unassigned) [Example I-78]
Post-emergence effect against VIOTR in % (VIOTR; 20 g/ha): 80%
Post-emergence effect against VIOTR in % (VIOTR; 80 g/ha): 90%
Post-emergence effect against VIOTR in % (VIOTR; 320 g/ha): 90%
Post-emergence effect against VERPE in % (VERPE; 20 g/ha): 80%
Post-emergence effect against VERPE in % (VERPE; 80 g/ha): 90%
Post-emergence effect against VERPE in % (VERPE; 320 g/ha): 90%
Post-emergence effect against DIGSA (DIGSA; 320 g/ha): 80%
Post-emergence effect against PHBPU in % (PHBPU; 20 g/ha): 80%
Post-emergence effect against PHBPU in % (PHBPU; 80 g/ha): 90%
Post-emergence effect against PHBPU in % (PHBPU; 320 g/ha): 90%
Post-emergence effect against ABUTH (ABUTH; 20 g/ha): 80%
Post-emergence effect against ABUTH (ABUTH; 80 g/ha): 80%
Post-emergence effect against ABUTH (ABUTH; 320 g/ha): 80%
Post-emergence effect at 20 g/ha against TRZAS in % (TRZAS): 0%
Post-emergence effect against LOLRI in % (LOLRI; 80 g/ha): 90%
Post-emergence effect against LOLRI in % (LOLRI; 320 g/ha): 90%
Post-emergence effect against AMARE (AMARE; 80 g/ha): 90%
Post-emergence effect against AMARE (AMARE; 320 g/ha): 90%
Post-emergence effect against SETVI in % (SETVI; 80 g/ha): 90%
Post-emergence effect against SETVI in % (SETVI; 320 g/ha): 90%
Post-emergence effect against ECHCG (ECHCG; 20 g/ha, visual rating about 3 weeks after treatment): 90%
Post-emergence effect against ECHCG in % (ECHCG; 80 g/ha): 90%
Post-emergence effect against ECHCG in % (ECHCG; 320 g/ha): 90%
Post-emergence effect against AVEFA (AVEFA; 80 g/ha): 90%
Post-emergence effect against AVEFA (AVEFA; 320 g/ha): 90%
Post-emergence effect against ALOMY (ALOMY): 90%
Post-emergence effect against MATIN in % (MATIN; 20 g/ha): 80%
Post-emergence effect against MATIN in % (MATIN; 80 g/ha): 90%
Post-emergence effect against MATIN in % (MATIN; 320 g/ha): 90%
Post-emergence effect against POLCO in % (POLCO; 80 g/ha): 90%
Post-emergence effect against POLCO in % (POLCO; 320 g/ha): 90%

CCOC(=O)C(OC)Oc1nn(-c2cnccn2)c(-c2ccc(F)nc2)c1Br (centres unmarked) [Example I-47]
pest or weed control at 80 g/ha (VIOTR; 80 g/ha): 80%
pest or weed control at 320 g/ha (VIOTR; 320 g/ha): 90%
pest or weed control at 80 g/ha (VERPE; [1]): 80%
pest or weed control at 320 g/ha (VERPE; [2]): 90%
pest or weed control at 320 g/ha (DIGSA; [3]): 80%
pest or weed control at 80 g/ha (PHBPU; [4]): 80%
pest or weed control at 320 g/ha (PHBPU; [5]): 90%
plant injury at 20 g/ha (ZEAMX; 20 g/ha): 0%
plant injury at 80 g/ha (ZEAMX; 80 g/ha): 0%
pest or weed control at 80 g/ha (ABUTH; 80 g/ha): 80%
pest or weed control at 320 g/ha (ABUTH; 320 g/ha): 90%
percent crop injury (phytotoxicity) to wheat, post-emergence at 20 g/ha (TRZAS): 0%
pest or weed control at 320 g/ha (LOLRI; 320 g/ha): 90%
pest or weed control at 320 g/ha (AMARE; [6]): 80%
pest or weed control at 80 g/ha (ECHCG; 80 g/ha): 90%
pest or weed control at 320 g/ha (ECHCG; 320 g/ha): 90%
pest or weed control at 320 g/ha (AVEFA; [7]): 80%
pest or weed control at 80 g/ha (KCHSC): 90%
pest or weed control at 320 g/ha (KCHSC; 320 g/ha): 90%
pest or weed control at 80 g/ha (POLCO; 80 g/ha): 80%
pest or weed control at 320 g/ha (POLCO; 320 g/ha): 80%

COC(=O)C(OC)Oc1nn(-c2ncccc2F)c(-c2ccc(F)nc2)c1Cl (centres unmarked) [Example I-38]
pest or weed control at 80 g/ha (VIOTR; 80 g/ha): 80%
pest or weed control at 320 g/ha (VIOTR; 320 g/ha): 90%
pest or weed control at 20 g/ha (VERPE; Veronica persica, 504 h, 20 g/ha, read-out: Post-emergence effect against VERPE in %): 80%
pest or weed control at 80 g/ha (VERPE; [1]): 80%
pest or weed control at 320 g/ha (VERPE; [2]): 100%
pest or weed control at 320 g/ha (DIGSA; [3]): 90%
pest or weed control at 80 g/ha (PHBPU; [4]): 90%
pest or weed control at 320 g/ha (PHBPU; [5]): 90%
plant injury at 20 g/ha (ZEAMX; 20 g/ha): 0%
pest or weed control at 320 g/ha (ABUTH; 320 g/ha): 80%
percent crop injury (phytotoxicity) to wheat, post-emergence at 20 g/ha (TRZAS): 0%
pest or weed control at 320 g/ha (LOLRI; 320 g/ha): 100%
pest or weed control at 80 g/ha (AMARE; Amaranthus retroflexus, 504 h, 80 g/ha, read-out: Post-emergence effect against AMARE): 90%
pest or weed control at 320 g/ha (AMARE; [6]): 90%
pest or weed control at 320 g/ha (SETVI; 320 g/ha): 90%
pest or weed control at 320 g/ha (ECHCG; 320 g/ha): 100%
pest or weed control at 320 g/ha (AVEFA; [7]): 90%
pest or weed control at 320 g/ha (ALOMY): 100%
pest or weed control at 80 g/ha (POLCO; 80 g/ha): 90%
pest or weed control at 320 g/ha (POLCO; 320 g/ha): 90%

CCOC(=O)C(OC)Oc1nn(-c2ncccc2F)c(-c2ccc(F)nc2)c1C(F)(F)F (centres unmarked) [Example I-55]
pest or weed control at 80 g/ha (VIOTR; 80 g/ha): 80%
pest or weed control at 320 g/ha (VIOTR; 320 g/ha): 90%
pest or weed control at 320 g/ha (VERPE; [2]): 90%
pest or weed control at 80 g/ha (DIGSA; Digitaria sanguinalis, 504 h, 80 g/ha, read-out: Post-emergence effect against DIGSA): 90%
pest or weed control at 320 g/ha (DIGSA; [3]): 90%
pest or weed control at 20 g/ha (PHBPU; Ipomoea purpurea, 504 h, 20 g/ha, read-out: Post-emergence effect against PHBPU in %): 80%
pest or weed control at 80 g/ha (PHBPU; [4]): 80%
pest or weed control at 320 g/ha (PHBPU; [5]): 90%
plant injury at 20 g/ha (ZEAMX; 20 g/ha): 0%
plant injury at 80 g/ha (ZEAMX; 80 g/ha): 0%
pest or weed control at 80 g/ha (ABUTH; 80 g/ha): 80%
pest or weed control at 320 g/ha (ABUTH; 320 g/ha): 90%
percent crop injury (phytotoxicity) to wheat, post-emergence at 20 g/ha (TRZAS): 20%
pest or weed control at 320 g/ha (LOLRI; 320 g/ha): 90%
pest or weed control at 320 g/ha (SETVI; 320 g/ha): 80%
pest or weed control at 80 g/ha (ECHCG; 80 g/ha): 90%
pest or weed control at 320 g/ha (ECHCG; 320 g/ha): 90%
pest or weed control at 80 g/ha (AVEFA; Avena fatua, 504 h, 80 g/ha, read-out: Post-emergence effect against AVEFA): 90%
pest or weed control at 320 g/ha (AVEFA; [7]): 90%
pest or weed control at 80 g/ha (KCHSC): 90%
pest or weed control at 320 g/ha (KCHSC; 320 g/ha): 90%
pest or weed control at 320 g/ha (ALOMY): 90%
pest or weed control at 80 g/ha (POLCO; 80 g/ha): 80%
pest or weed control at 320 g/ha (POLCO; 320 g/ha): 90%
